Values of other authors in patent US20230049319A1, “CANNABINOID-COMPRISING COSMETIC COMPOSITIONS” (THIS WORKS PRODUCTS LIMITED, priority 2020, published 2023).

Assays:
[1] = system: chronic inflammation and pain; details: mice and rats
[2] = in vivo
[3] = system: anxiety; details: in vivo

Structure (SMILES) | reducing anxiety, compared with trazodone hydrochloride [3] | other results
C=C(C)[C@@H]1CCC(C)=C[C@H]1c1c(O)cc(CCCCC)cc1O [CBD, cannabidiol] |  | chronic inflammation and pain [1]: substantially reduce
C=CC(C)(O)CCC=C(C)C (stereo not shown) [Linalool] |  | dose shown to be safe [2]: ≤ 120 mg
C=C[C@](C)(O)CCC=C(C)C [R-(−)-linalool] | as effective as the trazodone hydrochloride | 
C=C[C@@](C)(O)CCC=C(C)C [S-(+)-linalool] | as effective as the trazodone hydrochloride | 
